# US20160228584A1, “18F -GLUTATHIONE CONJUGATE AS A PET TRACER FOR IMAGING TUMORS OR NEUROLOGICAL DISORDERS THAT OVEREXPRESS L-PGDS ENZYME” (National Tsing Hua University, priority 2015, published 2016)
# Columns and labels:
# [1] = Ex vivo analysis of biodistribution; format: in vivo; details: rat
# Description: The specimens included 1) organ tissues such as brain, liver, spleen, heart, kidney, lung, colon, small bowel, stomach, testes, skull, and muscle, and 2) body fluids such as blood and urine. These specimens were submitted for counting the radioactivity using a solid scintillation gamma counter (Packard 5000, Packard Instrument Co. laboratory). The counting value of each specimen was further divided by the sample weight to give the final expression as percentage of injection dose per sample weight (% ID/g).
# [2] = molecular target: GST-π (Homo sapiens, UniProt P09211); experiment: Radioligand enzymatic binding assay (gel filtration HPLC); details: GSTP1
# Method: (§1) The flow rate was 1 mL/min.
# (§2) L-PGDS catalyzes the […] of prostaglandin H2 (PGH2), a metabolite (also known as a prostanoid) derived from arachidonic acid (AA) through oxidation and reduction via the catalysis of COX enzymes. For comparison, mPGES-1, the counterpart of L-PGDS that catalyzes the formation of PGE2 from COX-derived PGH2, was also used in this study. […] Thus, GST-P1 and GST-A1-1 enzymes were only used as negative controls.
# [3] = molecular target: T1, m-PGES (Homo sapiens, UniProt O14684); experiment: as above; details: mPGES-1
# T1 construct: purchased Cayman Chemical Inc
# T1 sequence (O14684 1-152): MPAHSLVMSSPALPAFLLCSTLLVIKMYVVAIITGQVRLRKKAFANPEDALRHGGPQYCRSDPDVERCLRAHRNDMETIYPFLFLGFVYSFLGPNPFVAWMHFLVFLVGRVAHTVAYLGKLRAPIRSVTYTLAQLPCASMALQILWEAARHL
# Method: as §1, §2
# [4] = molecular target: T2, GST-α (Homo sapiens, UniProt P08263); experiment: as above; details: GSTA1-1
# T2 construct: purchased Pro SpecTany Techno Gene Ltd ENZ-469
# T2 sequence (P08263 1-222): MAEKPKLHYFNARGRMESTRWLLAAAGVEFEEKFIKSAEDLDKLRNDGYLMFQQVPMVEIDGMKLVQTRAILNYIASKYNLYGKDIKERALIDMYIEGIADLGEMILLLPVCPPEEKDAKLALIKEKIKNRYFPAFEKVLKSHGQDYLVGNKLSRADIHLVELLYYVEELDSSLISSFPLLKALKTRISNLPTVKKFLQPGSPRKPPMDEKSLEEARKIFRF
# Method: as §1, §2
# [5] = tested on: C6 glioma brain tumor; experiment: PET imaging of C6-glioma rat brain tumor; format: in vivo; details: tail vein injection, three cross sections
# Method: All studies involving animals were conducted in compliance with federal and institutional guidelines. Two weeks before imaging, healthy male SD rats were stereotactically inoculated in the right hemisphere with 1.0×10^5 C6 glioma cells (American Type Tissue Collection).
# After C6 glioma cells were injected into the striatum of the SD rats, the animals were placed on heating pad until they have entirely recovered. When the xenografted tumor size has grown to a size of 1-2 mm in diameter, the animals were transferred to the animal facility under control by the research staff every morning. […] Prior to imaging, all rats were affixed with venous and arterial catheters. The in vivo xenograft C6 glioma was imaged 2 weeks after transplantation procedure, until the volume of the tumor reached 3 mm-5 mm in diameter, well-demarcated from normal brain tissue. Regular oral feeding was proceeded after the animals were recovered from anesthesia.
# PET scanning experiments were performed within 72 hours of MRI experiment that used to confirm a successful inoculation of tumors by administering [^18F] FBuEA-GS3 via tail vein injection. Both machines of microPET and nanoPET/CT were employed.
# Data were collected in list-mode format for 120 minutes. For reconstruction, the dynamic PET acquisition was divided into six 20-min frames over the scanning duration. […]
# [6] = tested on: C6 glioma; experiment: Cellular uptake of radiotracer in tumor cells; format: cell-based
# Method: The time point of addition of radio tracer was staggered such that every group could be harvested concurrently. At various times of 0.25, 0.5, 1.5, 3 and 5 h, the collection of the medium was progressing. During harvesting, the radioactive medium was collected from each of the wells, followed by rinsing with PBS […] twice. The medium and rinses (1.5 mL) were combined for counting; the counts were treated as extracellular radioactivity. Subsequently, the cells were lysed with 0.25% trypsin-EDTA ([…]) and the wells were rinsed with PBS twice. Both cells and rinses (1.5 mL) were combined for counting; the counts were treated as intracellular radioactivity. Radioactivity was measured using a scintillation gamma counter (Packard 5000, Packard Instrument Co. laboratory) and decay was corrected. Samples were performed triplicated at each time point for all uptake studies.
# The uptake ratio was calculated according to the following expression:
# Uptake ratio(%)=Countintracellular=Countextracellular+Countintracellular)×100%
# [7] = molecular target: T3, L-PGDS (Homo sapiens, UniProt P41222); experiment: Competitive inhibition of the production of PGD2 from PGH2 catalysed by L-PGDS (Cayman kit, EIA readout); format: biochemical; details: 200 μM of each test compound; duplicate; read-out: inhibition of the formation of PGD2 from PGH2
# T3 construct: purchased Cayman 10006595
# T3 sequence (P41222 23-190): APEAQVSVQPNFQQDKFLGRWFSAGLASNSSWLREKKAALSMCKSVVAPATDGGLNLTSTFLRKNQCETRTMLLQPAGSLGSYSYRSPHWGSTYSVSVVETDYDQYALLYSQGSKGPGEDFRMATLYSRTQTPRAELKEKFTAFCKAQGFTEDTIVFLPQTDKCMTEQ
compound,measurement,setting,value
"CCC(CSC[C@@H](NC(=O)CC[C@@H](N)C(=O)O)C(=O)NCC(=O)O)C(=O)c1ccc(OCC(=O)NCCCC[18F])c(Cl)c1Cl (stereo partly drawn) [[^18F]FBuEA-GS 3, glutathione conjugate of fluorine-18-labeled fluorobutyl ethacrynic amide]",radioactivity in the brain,"[1]; brain, 1.0-1.5 mCi injected",0.05 % ID/g
same,distribution of radioactivity (in words),[1]; fourteen tissue samples,mainly localized in the excretory system
same,binding affinity (in words),[2],weak binding affinities
same,binding affinity (in words),[3],did not show any binding affinity
same,binding affinity (in words),[4],weak binding affinities
same,PET imaging of brain tumor (in words),[5],clear hot spot coinciding to the tumor region detected by MRI imaging
same,time to reach steady state of accumulation,[6]; cellular uptake,approximately 15 min
"C=C(CC)C(=O)c1ccc(OCC(=O)NCCCC[18F])c(Cl)c1Cl [[^18F]FbuEA 2, fluorine-18-labeled fluorobutyl ethacrynic amide]",uptake in tumor cells versus normal cells (in words),[6]; tumor cells compared to normal cell,lower uptake in tumor cells compared to normal cell
O=c1ccn([C@@H]2O[C@H](CO)[C@@H](O)[C@H]2O)c(=O)[nH]1 [uridine],inhibition at 200 µM,[7],5.6 ± 14.3%
